Results from ChEMBL document CHEMBL1139406, “Anti-HIV-1 activity of phloroglucinol derivative, 6,6'-bieckol, from Ecklonia cava” (Bioorg Med Chem, 2008).
One block for each compound: values may come before it. Activity calls are given as the source filed them. The calls are words filed in the database; no cut-off is given here.

Key:
Protease = Protease (Human immunodeficiency virus 1, UniProt Q9YQ12); experiment: (§1) Inhibition of HIV1 3B recombinant protease
[1] = target: Human immunodeficiency virus type 1 reverse transcriptase (Human immunodeficiency virus 1, UniProt Q72547); experiment: Inhibition of HIV1 3B reverse transcriptase activity
[2] = target: Protease (Human immunodeficiency virus 1) (UniProt Q9YQ12); experiment: as §1
[3] = system: Human immunodeficiency virus 1; experiment: Antiviral activity against HIV1 3B in human CEM-SS cells assessed as inhibition of viral-induced lytic effect after 7 days by MTT assay; format: functional, organism-based; conditions: Human immunodeficiency virus 1, 3B, 168 h
[4] = system: Human immunodeficiency virus 1; experiment: Antiviral activity against HIV1 3B in human H9 cells assessed as inhibition of p24 antigen production at 10 uM by ELISA; format: functional; conditions: Human immunodeficiency virus 1, 3B
[5] = system: Human immunodeficiency virus 1; experiment: Antiviral activity against HIV1 3B in human C8166 cells assessed as inhibition of viral-induced syncytia formation at 25 uM after 72 hrs; format: functional; design: scale not given: the % may be the effect or the level left
[6] = target: Human immunodeficiency virus type 1 reverse transcriptase (Human immunodeficiency virus 1) (UniProt Q72547); experiment: Inhibition of HIV1 3B reverse transcriptase activity at 1 uM
[7] = system: Human immunodeficiency virus 1; experiment: Antiviral activity against HIV1 3B in human CEM-SS cells assessed as inhibition of viral-induced lytic effect at 25 uM after 7 days by MTT assay; format: functional; design: scale not given: the % may be the effect or the level left
[8] = system: Human immunodeficiency virus 1; experiment: Antiviral activity against HIV1 3B in human C8166 co-cultivated with H9 cells assessed as inhibition of cell-virus fusion after 72 hrs; format: functional, organism-based
[9] = target: Human immunodeficiency virus type 1 reverse transcriptase (Human immunodeficiency virus 1) (UniProt Q72547); experiment: Inhibition of HIV1 3B reverse transcriptase activity at 10 uM
[10] = system: Human immunodeficiency virus 1; experiment: Antiviral activity against HIV1 3B in human H9 cells assessed as inhibition of p24 gag protein production after 4 days by Western blot analysis; format: functional, organism-based
[11] = system: Human immunodeficiency virus 1; experiment: Antiviral activity against HIV1 3B in human H9 cells assessed as inhibition of p41 gag protein production after 4 days by Western blot analysis; format: functional, organism-based
[12] = system: Human immunodeficiency virus 1; experiment: Antiviral activity against HIV1 3B in human C8166 cells assessed as inhibition of viral-induced syncytia formation after 72 hrs; format: functional, organism-based; conditions: Human immunodeficiency virus 1, 3B, C8166, 72 h
[13] = system: Human immunodeficiency virus 1; experiment: Antiviral activity against HIV1 3B in human H9 cells assessed as inhibition of p24 antigen production by ELISA; format: functional, organism-based; conditions: Human immunodeficiency virus 1, 3B
[14] = system: Human immunodeficiency virus 1; experiment: Antiviral activity against HIV1 3B in human H9 cells assessed as inhibition of p55 gag protein production after 4 days by Western blot analysis; format: functional, organism-based
[15] = system: Human immunodeficiency virus 1; experiment: Antiviral activity against HIV1 3B in human H9 cells assessed as inhibition of p24 antigen production at 25 uM by ELISA; format: functional, organism-based
[16] = Cytotoxicity against human CEM-SS cells after 72 hrs by MTT assay; format: cell-based
CEM-SS = experiment: Cytotoxicity against human CEM-SS cells up to 500 by MTT assay; format: cell-based
[17] = Therapeutic index, ratio of CC50 for human CEM-SS cells to IC50 for HIV1 induced lytic effect; format: cell-based; conditions: read-out: TI
[18] = system: Human immunodeficiency virus 1; experiment: Antiviral activity against HIV13B in human C8166 co-cultivated with H9 cells assessed as inhibition of viral-induced syncytia formation at 25 uM after 72 hrs; format: functional, 3B; design: scale not given: the % may be the effect or the level left
[19] = system: Human immunodeficiency virus 1; experiment: Antiviral activity against HIV1 3B in human C8166 co-cultivated with H9 cells assessed as inhibition of cell-cell fusion after 72 hrs; format: functional, organism-based
[20] = system: Human immunodeficiency virus 1; experiment: Antiviral activity against HIV1 3B in human H9 cells assessed as inhibition of p24 antigen production at 5 uM by ELISA; format: functional, organism-based

Protease, sequence (Q9YQ12 whole entry): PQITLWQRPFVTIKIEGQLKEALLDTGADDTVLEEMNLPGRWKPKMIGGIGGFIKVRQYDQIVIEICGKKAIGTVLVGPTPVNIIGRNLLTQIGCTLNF
Protease (Human immunodeficiency virus 1), sequence (Q9YQ12 as listed by the source): as the sequence (Q9YQ12 whole entry) above

- IC50 (Protease): 81.5 µM
- EC50 [1]: 0.51 µM
SMILES: Oc1cc(O)cc(Oc2c(O)cc(O)c3c2Oc2c(cc(O)c(-c4c(O)cc5c(c4O)Oc4c(Oc6cc(O)cc(O)c6)c(O)cc(O)c4O5)c2O)O3)c1

- Activity [2]: inactive
- inhibition [6]: 50.5%
- EC50 [1]: 1.07 µM
- inhibition [9]: 96.3%
- EC50 [12]: 1.72 µM
- EC50 [13]: 1.26 µM
SMILES: Oc1cc(O)cc(Oc2c(O)cc(O)c3c2Oc2c(O)cc(O)c(-c4c(O)cc(O)c5c4Oc4c(O)cc(O)c(Oc6cc(O)cc(O)c6)c4O5)c2O3)c1
- EC50 [3]: 1.23 µM
- inhibition at 10 µM [4]: 90%
- Activity [5]: 88%
- Activity [7]: >96%
- Activity [8]: Active
- Activity [10]: Dose-dependent effect
- Activity [11]: Active
- Activity [14]: Active
- Activity [15]: Active
- CC50 at 72 h [16]: 484 µM
- Activity (CEM-SS): Non-toxic
- selectivity ratio [17]: 393
- Activity [18]: 80%
- Activity [19]: Active

SMILES: Cc1cn([C@H]2C[C@H](N=[N+]=[N-])[C@@H](CO)O2)c(=O)[nH]c1=O
- Activity [20]: Active
